# Data taken from publication PMC7440915, “Discovery of surrogate agonists for visceral fat Treg cells that modulate metabolic indices in vivo” (eLife, 2020).
# Where no end group is shown, it is not given here.
# Tested on: vTreg53 Treg cells
# Experiment: Proliferation and activation of primary vTreg53 TCR-tg Treg cells in vitro
# Assay type: cell-based, mouse
# Conditions: 3 days; for proliferation: compared with no peptide / other SPs; for potency on primary vTreg53 Treg cells: in vitro
# Description: Figure 4. SPs induce proliferation and activation of vTreg53 Treg cells in vitro and in vivo. (A–D) Proliferation and activation of vTreg53 Treg cells by different concentrations of SPs for 3 days in vitro (n = 3). (A) Representative flow cytometric plot of cell division. (B) Summary of cell proliferation. (C) Mean flourescence intensity (MFI) of CD44 staining in clonotype^+ Treg cells. (D) MFI of CD62L staining in clonotype^+ Treg cells. (E) Proliferation of transferred CD45.2^+ vTreg53 Treg cells in the spleen of CD45.1^+ B6 recipient mice immunized s.c. with CFA or CFA/Fat1562 at day 3 (n = 3). (F) Expansion of transferred CD45.2^+ vTreg53 Treg cells in the Spl/LNs or VAT of CD45.1^+ B6 recipient mice that were primed with CFA/fat1562 s.c. and boosted with IFA/Fat1562 i.p. (n ≥ 3). Data are mean ± SD. Data shown are representative of at least two independent experiments. Figure 4—figure supplement 1. Single cell TCR sequencing (scTCR-seq) analyses of fat1562-reactive endogenous Treg cells following immunization. (A) Scheme of the experiment. (B) Flow cytometric analysis of fat1562/A^b -PE tetramer+ Treg cells in Spl/LNs (enriched by anti-PE beads) or VAT (not enriched) of mice immunized with adjuvant alone or adjuvant/fat1562. Plot is a representative of mice that did show detectable expansion of tetramer+ Tregs. (C) Numbers of fat1562/A^b -PE tetramer+ Treg cells in Spl/LNs or VAT of mice immunized with adjuvant alone or adjuvant/fat1562 (D) Summary of the frequency and CDR3 sequences of expanded fat1562/A^b -PE tetramer+ Treg clones. [drawing 5] TEXT PRINTED IN THE PICTURE: (A) Fat7: 51 (1μM); 32.1 (0.1μM); 16.4 (0.01μM) | (A) Fat15: 59.7 (1μM); 54.4 (0.1μM); 37.1 (0.01μM) | (A) Fat1562: 61.6 (1μM); 57.6 (0.1μM); 51.8 (0.01μM) | (A) Fat2564: 44.2 (1μM); 32.5 (0.1μM); 19.3 (0.01μM) | (E) CFA: 9.6 | (E) CFA/Fat1562: 76.8 | (F) adjuvant: 0.1 (Spl/LN); 1.5 (VAT) | (F) adjuvant/Fat1562: 0.7 (Spl/LN); 38.1 (VAT) DOUBTS OF THE COPYIST ABOUT THIS PICTURE: Panels A, E, F: the gate numbers in the flow cytometry plots are printed without a measure or unit; they are copied as bare numbers. / Panel A: the row 'no peptide' (15.7, 17.1, 17.2) is a control without a substance and was left out. / Panel A, Fat1562, 1μM: the number is crossed by the histogram line; 61.6 is the best reading. / Panel E, CFA/Fat1562: the number is crossed by the histogram line; 76.8 is the best reading.
# Tregs from pooled LNs of Tg^+ Foxp3-GFP^KI/y mice were labeled with CellTrace Violet dye (ThermoFisher Scientific), cultured in complete RPMI medium in the presence of 100 U/ml recombinant mouse IL-2 (peprotech), and stimulated by syngeneic APCs loaded with the indicated concentrations of different peptides. 3 days later, the proliferation and activation of clonotype^+ Treg cells was determined by flow cytometric analysis of the dilution of the CellTrace Violet dye, upregulation of CD44 expression, and downregulation of CD62L levels.
Sequence,"CD44 up-regulation (0.01 µM, compared with no peptide)",proliferation (0.01 µM),"CD62L down-regulation (1 µM, n = 3)",potency on primary vTreg53 Treg cells,CD62L down-regulation (0.01 µM)
LMFKGPHAVQAVG [Fat7],unable to promote any further proliferation and up-regulation of CD44 expression,unable to promote any further proliferation,dampened CD62L levels only moderately,,
TMYKNLRPWAATG [Fat2564],,,,"relatively weak potency, which was comparable with that of Fat7",
TMYKNPRPMAATG [Fat1562],,strongest proliferation,strongest down-regulation of CD62L,consistently the strongest SP,strongest proliferation and down-regulation of CD62L
